Values joined by “and” are separate entries in the source; they are usually repeats but may differ in a detail not shown here. Equal entries are not always repeated. “Also recorded” adds a separate entry of the source. Structures can show the parent of a compound that is named as a salt.
System: CD80 expression in the monocytes (human whole blood)
Assay: Flow-cytometric immunostimulation: CD80 upregulation in human whole blood
Type: cell-based
Conditions: 16 h, CD80-PE-Cy7 MFI
Experimental: Flow-Cytometric Immunostimulation Experiments:
Cell surface marker upregulation was determined by flow cytometry using protocols published by us previously. Briefly, heparin-anticoagulated whole blood samples were obtained by venipuncture from healthy human volunteers with informed consent and as per guidelines approved by the University of Minnesota Human Subjects Experimentation Committee. Serial dilutions of selected compounds were performed using a Bio-Tek Precision 2000 XS liquid handler in sterile 96-well polypropylene plates, to which were added 100 μL aliquots of anticoagulated whole human blood. The plates were incubated at 37° C. for 16 h. Negative (DMSO) controls were included in each experiment. The following fluorochrome-conjugated antibodies were used: CD14-FITC, CD40-APC, CD80-PE-Cy7, CD86-V450 (Becton-Dickinson Biosciences, San Jose, Calif.). Following incubation, 2.5 μg of each antibody was added to wells with a liquid handler, and incubated at 4° C. in the dark for 60 min. Following staining, erythrocytes were lysed and leukocytes fixed by mixing 200 μL of the samples in 800 μL pre-warmed Whole Blood Lyse/Fix Buffer (Becton-Dickinson Biosciences, San Jose, Calif.) in 96 deep-well plates. After washing the cells twice at 300 g for 10 minutes in RPMI, the cells were transferred to a 96-well plate. […]

SMILES	activity in upregulating CD80
CCCCNc1nc(N)nc(C)c1I [Compound 4b, N^4-Butyl-5-iodo-6-methylpyrimidine-2,4-diamine]	1.5 μg/mL and 5 μM

Biological target: T1, human TLR8 (Homo sapiens, UniProt Q9NR97)
T1 construct: expressed in transfected cells; host or cells: HEK293
T1 sequence (Q9NR97 27-1041): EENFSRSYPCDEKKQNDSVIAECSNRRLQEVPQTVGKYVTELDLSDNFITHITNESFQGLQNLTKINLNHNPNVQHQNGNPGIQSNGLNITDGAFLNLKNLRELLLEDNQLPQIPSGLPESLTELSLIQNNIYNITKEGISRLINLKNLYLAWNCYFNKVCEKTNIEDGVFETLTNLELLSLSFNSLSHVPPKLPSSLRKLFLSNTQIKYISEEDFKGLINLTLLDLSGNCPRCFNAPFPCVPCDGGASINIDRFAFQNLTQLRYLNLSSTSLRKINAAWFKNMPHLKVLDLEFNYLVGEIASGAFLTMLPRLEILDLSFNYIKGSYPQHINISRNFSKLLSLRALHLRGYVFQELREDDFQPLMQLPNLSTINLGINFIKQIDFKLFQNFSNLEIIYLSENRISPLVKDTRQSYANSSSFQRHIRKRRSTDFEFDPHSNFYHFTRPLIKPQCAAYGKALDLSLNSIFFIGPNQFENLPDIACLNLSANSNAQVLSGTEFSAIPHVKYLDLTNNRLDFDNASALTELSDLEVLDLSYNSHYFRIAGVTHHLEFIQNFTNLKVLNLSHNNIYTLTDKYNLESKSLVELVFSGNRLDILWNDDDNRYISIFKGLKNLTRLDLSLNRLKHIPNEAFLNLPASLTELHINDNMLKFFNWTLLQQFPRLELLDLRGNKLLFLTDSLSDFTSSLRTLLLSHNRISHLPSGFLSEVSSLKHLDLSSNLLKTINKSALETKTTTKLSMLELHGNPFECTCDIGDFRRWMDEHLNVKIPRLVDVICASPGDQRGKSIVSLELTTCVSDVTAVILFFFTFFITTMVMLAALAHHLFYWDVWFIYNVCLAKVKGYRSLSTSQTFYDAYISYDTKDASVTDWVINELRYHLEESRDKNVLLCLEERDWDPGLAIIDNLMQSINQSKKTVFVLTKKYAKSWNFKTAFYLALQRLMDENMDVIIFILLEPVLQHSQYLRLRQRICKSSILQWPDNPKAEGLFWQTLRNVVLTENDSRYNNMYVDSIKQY
Assay: Human TLR8-specific reporter gene assay (NF-κB induction, sAP) in HEK293 cells
Type: cell-based
Conditions: primary screen, HEK293 hTLR8 reporter cells; read-out: EC50, TLR8 agonistic activity (hTLR8-specific NF-κB induction)
Excerpt: Human TLR8-Specific Reporter Gene Assays (NF-κB Induction), and TLR-2/-3/-4/-5/-7/-9 Counter-Screens:
The induction of NF-κB was quantified using human TLR-2/-3/-4/-5/-7/-8/-9-specific, rapid-throughput, liquid handler-assisted reporter gene assays as previously described by us.^31,25, 32,33 HEK293 cells stably co-transfected with the appropriate hTLR and secreted alkaline phosphatase (sAP) were maintained in HEK-Blue™ Selection medium. Stable expression of secreted alkaline phosphatase (sAP) under control of NF-κB/AP-1 promoters is inducible by appropriate TLR agonists, and extracellular sAP in the supernatant is proportional to NF-κB induction. Reporter cells were incubated at a density of ˜10^5 cells/ml in a volume of 80 μl/well, in 384-well, flat-bottomed, cell culture-treated microtiter plates in the presence of graded concentrations of stimuli. sAP was assayed spectrophotometrically using an alkaline phosphatase-specific chromogen (present in HEK-detection medium as supplied by InvivoGen) at 620 nm.

SMILES	EC50
CCCCNc1ccnc(N)n1 [Compound 16, N^4-Butylpyrimidine-2,4-diamine]	73.2 µM
CCCCNc1cc(C)nc(N)n1 [Compound 15, N^4-Butyl-6-methylpyrimidine-2,4-diamine]	22 µM

Further lines, results first:

EC50	SMILES
2.31 µM	CCCCNc1nc(N)nc(C)c1CCCN.Cl.Cl [Compound 27a, 5-(3-Aminopropyl)-N^4-butyl-6-methylpyrimidine-2,4-diamine dihydrochloride]
2.7 µM	CCCCNc1nc(N)nc(-c2ccccc2)c1CCCCN.Cl.Cl [Compound 32b, 5-(4-Aminobutyl)-N^4-butyl-6-phenylpyrimidine-2,4-diamine dihydrochloride]
2.35 µM	CCCCNc1nc(N)nc(-c2ccccc2)c1CCCCCN [Compound 32c, 5-(5-Aminopentyl)-N^4-butyl-6-phenylpyrimidine-2,4-diamine dihydrochloride]

Same assay, conditions: primary screen, reporter gene assay

SMILES	TLR8-agonistic activity (in words)
CCCCNc1nc(N)ncc1I [Compound 17, N^4-Butyl-5-iodopyrimidine-2,4-diamine]	entirely without measurable TLR8-agonistic activity
CCCCNc1nc(N)nc(-c2ccccc2)c1I [Compound 29, N^4-Butyl-5-iodo-6-phenylpyrimidine-2,4-diamine]	inactive
CCCCN(C)c1nc(N)nc(C)c1I [Compound 4e, N^4-Butyl-5-iodo-N^4,6-dimethylpyrimidine-2,4-diamine]	abrogated activity
CCCCOc1nc(N)nc(C)c1I [Compound 4g, 4-Butoxy-5-iodo-6-methylpyrimidin-2-amine]	inactive
CCCCCc1cc(C)nc(N)n1 [Compound 4j, 4-Methyl-6-pentylpyrimidin-2-amine]	inactive
CCCCSc1nc(N)nc(C)c1I [Compound 4h, 4-(Butylthio)-5-iodo-6-methylpyrimidin-2-amine]	inactive
CCCCCc1nc(N)nc(C)c1I [Compound 4k, 5-iodo-4-methyl-6-pentylpyrimidin-2-amine]	inactive
CCCC#Cc1cc(C)nc(N)n1 [Compound 4i, 4-Methyl-6-(pent-1-yn-1-yl)pyrimidin-2-amine]	inactive
CCCCN(Cc1ccccc1)c1nc(N)nc(C)c1I [Compound 4f, N^4-Benzyl-N^4-butyl-5-iodo-6-methylpyrimidine-2,4-diamine]	abrogated activity
CCCCNc1nc(N)nc(C)c1Cc1ccccc1 [Compound 24, 5-Benzyl-MN-butyl-6-methylpyrimidine-2,4-diamine]	diminution of activity, exhibiting greatly attenuated area-under-the curve

More lines, now with the values ahead:

TLR8-agonistic activity (in words)	SMILES
substantial losses in potency	CCCCNc1nc(N)nc(C)c1Cl [Compound 6a, N^4-Butyl-5-chloro-6-methylpyrimidine-2,4-diamine]
appeared to plateau	CCCCNc1nc(N)nc(C)c1CCCCCN.Cl.Cl [Compound 27c, 5-(5-Aminopentyl)-MN-butyl-6-methylpyrimidine-2,4-diamine dihydrochloride]
substantial losses in potency	CCCCNc1nc(N)nc(C)c1Br [Compound 6b, 5-Bromo-N^4-butyl-6-methylpyrimidine-2,4-diamine]
substantial losses in potency	CCCCNc1nc(N)nc(C)c1F [Compound 6c, N^4-Butyl-5-fluoro-6-methylpyrimidine-2,4-diamine]

Same assay, conditions: reference printed as 4b (22 μM)

fold increase in TLR8 potency relative to that of 4b (22 μM)	SMILES
increased nearly ten-fold	CCCCNc1nc(N)nc(C)c1CCCN.Cl.Cl [Compound 27a, 5-(3-Aminopropyl)-N^4-butyl-6-methylpyrimidine-2,4-diamine dihydrochloride]

Same assay, conditions: relative to 4b

fold less active than 4b (TLR8 EC50)	SMILES
ca. fourteen-fold less active	CCCCNc1cc(C)nc(N)n1 [Compound 15, N^4-Butyl-6-methylpyrimidine-2,4-diamine]

Same assay, conditions: reporter gene assays with TLR-2/-3/-4/-5/-7/-9 counter-screens

SMILES	TLR8 specificity/selectivity (in words)
CCCCNc1nc(N)nc(C)c1I [Compound 4b, N^4-Butyl-5-iodo-6-methylpyrimidine-2,4-diamine]	pure TLR8 agonist; also recorded: bona fide TLR8-specific agonist

System: human peripheral blood mononuclear cells (hPBMC)
Assay: Multiplexed immunoassays for cytokine and chemokine induction in human PBMCs
Type: cell-based
Conditions: 41-analyte multiplexed immunoassay
Experimental: Immunoassays for Cytokines.
Fresh human peripheral blood mononuclear cells (hPBMC) were isolated from human blood obtained by venipuncture in Cell Preparation Tubes (CPT, Beckton-Dickinson) with informed consent and as per guidelines approved by the University of Minnesota Human Subjects Experimentation Committee. Aliquots of PBMCs (10^5 cells in 100 µL/well) were stimulated for 16 h with graded concentrations of test compounds. Supernatants were isolated by centrifugation, and were assayed in duplicates using analyte-specific multiplexed cytokine/chemokine bead array assays (HCYTMAG-60K-PX29 MILLIPLEX MAP Human Cytokine/Chemokine Magnetic Bead Panel, EMD Millipore, Billerica, Mass.) as reported by us previously.^19 The following analytes were quantified: sCD40L, VEGF, TNF-β, TNF-α. TGF-α, RANTES, PDGF-AB/BB, PDGF-AA, MIP-1β, MIP-1α, MDC (CCL22), MCP-3, MCP-1, IP-10, IL-17A, IL-15, IL-13, IL-12 (p70), IL-12 (p40). IL-10, IL-9, IL-8, IL-7, IL-6, IL-5, IL-4, IL-3, IL-2, IL-1 ra, IL-1β, IL-1α, IFN-γ, IFN-α2, GRO, GM-CSF, G-CSF, fractalkine, Fit-3 ligand, FGF-2, eotaxin, EGF.

SMILES	cytokine and chemokine induction (in words)
CCCCNc1nc(N)nc(-c2ccccc2)c1CCCCN.Cl.Cl [Compound 32b, 5-(4-Aminobutyl)-N^4-butyl-6-phenylpyrimidine-2,4-diamine dihydrochloride]	significantly weaker

Reference: patent US10662161B2, “Pyrimidines and uses thereof” (Regents of the University of Minnesota, priority 2017, dated 2020)
